What was measured:
Experiment in all cases: Kinase profiling in a biochemical assay panel (mobility shift assays and ELISA), %-inhibition at 1 μM; selectivity entropy
[1] = molecular target: T1, panel of more than 300 wild-type and mutant kinases (313 kinase panel) (Homo sapiens, UniProt O00141)
T1 sequence (O00141 1-431): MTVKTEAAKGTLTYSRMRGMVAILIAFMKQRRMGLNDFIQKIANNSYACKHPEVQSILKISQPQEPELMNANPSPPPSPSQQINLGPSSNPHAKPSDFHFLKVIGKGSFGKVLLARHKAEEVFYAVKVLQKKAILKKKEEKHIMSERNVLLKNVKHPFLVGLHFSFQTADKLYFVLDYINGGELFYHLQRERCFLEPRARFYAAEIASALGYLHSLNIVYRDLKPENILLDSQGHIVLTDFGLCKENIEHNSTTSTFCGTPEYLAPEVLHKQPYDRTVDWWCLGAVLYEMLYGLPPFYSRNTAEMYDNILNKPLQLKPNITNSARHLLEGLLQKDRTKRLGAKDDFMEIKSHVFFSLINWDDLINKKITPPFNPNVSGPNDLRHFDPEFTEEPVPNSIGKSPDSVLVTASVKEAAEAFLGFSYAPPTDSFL

[2] = molecular target: panel of more than 300 wild-type and mutant kinases (313 kinase panel) (Homo sapiens, UniProt O75676)
[3] = molecular target: panel of more than 300 wild-type and mutant kinases (313 kinase panel) (Homo sapiens, UniProt P04629)
[4] = molecular target: panel of more than 300 wild-type and mutant kinases (313 kinase panel) (Homo sapiens, UniProt P07949, S891A)
panel of more than 300 wild-type and mutant kinases (313 kinase panel) (Homo sapiens, UniProt P07949, S891A), sequence (P07949 29-1114 S891A): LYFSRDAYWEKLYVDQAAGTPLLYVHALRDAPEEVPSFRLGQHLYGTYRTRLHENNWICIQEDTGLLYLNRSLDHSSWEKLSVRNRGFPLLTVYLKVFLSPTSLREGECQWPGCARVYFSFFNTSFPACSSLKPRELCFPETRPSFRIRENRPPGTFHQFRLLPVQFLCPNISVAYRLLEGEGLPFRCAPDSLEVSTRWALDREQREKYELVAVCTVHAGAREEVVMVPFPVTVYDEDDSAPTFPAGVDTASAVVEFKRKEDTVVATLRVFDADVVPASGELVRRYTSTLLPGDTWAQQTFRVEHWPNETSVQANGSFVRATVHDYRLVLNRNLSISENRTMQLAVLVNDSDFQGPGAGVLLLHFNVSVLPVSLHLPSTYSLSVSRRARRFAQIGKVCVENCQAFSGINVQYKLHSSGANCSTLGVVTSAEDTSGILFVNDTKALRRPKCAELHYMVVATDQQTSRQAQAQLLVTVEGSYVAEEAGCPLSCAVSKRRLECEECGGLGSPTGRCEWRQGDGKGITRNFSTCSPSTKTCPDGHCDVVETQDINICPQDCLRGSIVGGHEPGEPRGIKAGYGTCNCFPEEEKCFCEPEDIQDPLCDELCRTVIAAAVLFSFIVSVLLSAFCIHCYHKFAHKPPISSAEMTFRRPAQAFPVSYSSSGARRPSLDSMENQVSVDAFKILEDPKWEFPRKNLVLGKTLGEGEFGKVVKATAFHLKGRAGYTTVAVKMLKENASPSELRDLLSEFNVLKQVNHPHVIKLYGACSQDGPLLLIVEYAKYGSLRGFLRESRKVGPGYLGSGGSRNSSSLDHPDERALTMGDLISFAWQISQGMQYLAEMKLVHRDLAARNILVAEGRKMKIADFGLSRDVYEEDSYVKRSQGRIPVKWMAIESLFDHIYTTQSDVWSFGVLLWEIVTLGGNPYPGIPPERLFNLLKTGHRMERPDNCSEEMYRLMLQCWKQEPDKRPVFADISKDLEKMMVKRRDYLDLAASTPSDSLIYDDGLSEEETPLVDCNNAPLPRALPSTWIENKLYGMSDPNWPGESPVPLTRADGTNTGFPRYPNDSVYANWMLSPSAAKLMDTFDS

[5] = molecular target: panel of more than 300 wild-type and mutant kinases (313 kinase panel) (Homo sapiens, UniProt P16591)
panel of more than 300 wild-type and mutant kinases (313 kinase panel) (Homo sapiens, UniProt P16591), sequence (P16591 whole entry, change not shown): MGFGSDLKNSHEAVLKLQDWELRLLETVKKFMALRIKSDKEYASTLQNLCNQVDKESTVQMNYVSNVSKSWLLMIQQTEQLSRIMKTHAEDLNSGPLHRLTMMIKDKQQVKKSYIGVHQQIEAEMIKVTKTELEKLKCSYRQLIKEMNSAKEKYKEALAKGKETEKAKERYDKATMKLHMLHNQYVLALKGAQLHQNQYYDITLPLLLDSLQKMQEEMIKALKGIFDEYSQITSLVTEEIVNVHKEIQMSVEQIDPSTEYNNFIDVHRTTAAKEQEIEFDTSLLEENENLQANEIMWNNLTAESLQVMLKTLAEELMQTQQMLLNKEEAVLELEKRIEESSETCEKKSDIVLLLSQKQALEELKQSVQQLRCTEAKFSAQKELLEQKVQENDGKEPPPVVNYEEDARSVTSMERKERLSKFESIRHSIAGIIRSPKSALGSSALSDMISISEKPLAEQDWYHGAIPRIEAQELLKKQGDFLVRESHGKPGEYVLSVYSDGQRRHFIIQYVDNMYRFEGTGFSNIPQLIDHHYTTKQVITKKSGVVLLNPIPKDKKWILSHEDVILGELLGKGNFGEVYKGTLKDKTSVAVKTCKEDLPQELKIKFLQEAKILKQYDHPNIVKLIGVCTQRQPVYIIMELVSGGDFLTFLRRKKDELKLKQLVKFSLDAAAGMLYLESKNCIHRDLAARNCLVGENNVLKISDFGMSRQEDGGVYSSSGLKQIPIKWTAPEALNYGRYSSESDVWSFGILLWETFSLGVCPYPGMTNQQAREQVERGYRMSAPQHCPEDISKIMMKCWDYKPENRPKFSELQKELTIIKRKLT

[6] = molecular target: T2, panel of more than 300 wild-type and mutant kinases (313 kinase panel) (Homo sapiens, UniProt Q12851)
T2 sequence (Q12851 1-820): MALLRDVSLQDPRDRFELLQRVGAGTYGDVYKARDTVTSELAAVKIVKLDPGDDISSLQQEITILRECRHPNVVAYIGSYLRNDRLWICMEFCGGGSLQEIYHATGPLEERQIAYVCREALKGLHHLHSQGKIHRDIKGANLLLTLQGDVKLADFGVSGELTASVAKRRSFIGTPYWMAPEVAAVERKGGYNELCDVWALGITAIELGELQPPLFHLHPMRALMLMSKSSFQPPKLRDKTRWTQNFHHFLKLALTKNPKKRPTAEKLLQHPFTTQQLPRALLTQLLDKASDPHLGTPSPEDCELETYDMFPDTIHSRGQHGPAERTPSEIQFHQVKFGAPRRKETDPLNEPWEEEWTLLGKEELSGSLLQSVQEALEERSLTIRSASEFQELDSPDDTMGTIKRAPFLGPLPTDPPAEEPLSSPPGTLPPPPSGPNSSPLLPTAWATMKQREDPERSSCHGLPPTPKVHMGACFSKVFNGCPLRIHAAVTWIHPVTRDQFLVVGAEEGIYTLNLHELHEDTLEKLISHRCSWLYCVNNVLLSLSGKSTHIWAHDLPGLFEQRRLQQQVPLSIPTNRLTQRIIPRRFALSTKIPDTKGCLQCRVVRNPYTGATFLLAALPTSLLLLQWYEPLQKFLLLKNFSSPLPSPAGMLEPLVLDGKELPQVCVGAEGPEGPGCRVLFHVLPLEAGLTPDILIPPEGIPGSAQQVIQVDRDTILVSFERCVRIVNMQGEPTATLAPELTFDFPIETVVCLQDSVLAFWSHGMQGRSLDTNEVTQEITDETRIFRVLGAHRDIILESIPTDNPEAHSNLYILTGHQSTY

[7] = molecular target: T3, panel of more than 300 wild-type and mutant kinases (313 kinase panel) (Homo sapiens, UniProt Q15831)
T3 sequence (Q15831 1-433): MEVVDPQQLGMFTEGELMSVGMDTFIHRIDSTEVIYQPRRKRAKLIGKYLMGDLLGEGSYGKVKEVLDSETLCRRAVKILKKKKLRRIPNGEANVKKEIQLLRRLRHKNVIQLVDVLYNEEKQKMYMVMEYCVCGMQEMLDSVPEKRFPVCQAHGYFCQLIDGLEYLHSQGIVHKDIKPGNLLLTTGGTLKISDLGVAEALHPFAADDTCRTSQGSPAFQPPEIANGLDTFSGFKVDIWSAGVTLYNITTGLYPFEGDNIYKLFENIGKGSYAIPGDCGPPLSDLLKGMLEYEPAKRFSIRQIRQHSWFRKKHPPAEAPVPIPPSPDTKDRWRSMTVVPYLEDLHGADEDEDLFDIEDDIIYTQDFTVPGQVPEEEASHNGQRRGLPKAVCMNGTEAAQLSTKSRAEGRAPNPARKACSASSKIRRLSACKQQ

[8] = molecular target: T4, panel of more than 300 wild-type and mutant kinases (313 kinase panel) (Homo sapiens, UniProt Q96KB5)
T4 sequence (Q96KB5 1-322): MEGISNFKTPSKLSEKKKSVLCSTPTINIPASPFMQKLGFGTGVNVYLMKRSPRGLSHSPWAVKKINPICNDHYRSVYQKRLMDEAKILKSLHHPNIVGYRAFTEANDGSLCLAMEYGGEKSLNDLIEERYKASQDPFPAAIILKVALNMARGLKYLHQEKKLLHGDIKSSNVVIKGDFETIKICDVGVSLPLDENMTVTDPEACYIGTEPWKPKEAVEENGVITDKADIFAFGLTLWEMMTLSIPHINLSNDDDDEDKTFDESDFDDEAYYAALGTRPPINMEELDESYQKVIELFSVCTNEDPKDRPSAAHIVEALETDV

[9] = molecular target: panel of more than 300 wild-type and mutant kinases (313 kinase panel) (Homo sapiens, UniProt Q9Y6M4)
panel of more than 300 wild-type and mutant kinases (313 kinase panel) (Homo sapiens, UniProt Q9Y6M4), sequence (Q9Y6M4 whole entry, change not shown): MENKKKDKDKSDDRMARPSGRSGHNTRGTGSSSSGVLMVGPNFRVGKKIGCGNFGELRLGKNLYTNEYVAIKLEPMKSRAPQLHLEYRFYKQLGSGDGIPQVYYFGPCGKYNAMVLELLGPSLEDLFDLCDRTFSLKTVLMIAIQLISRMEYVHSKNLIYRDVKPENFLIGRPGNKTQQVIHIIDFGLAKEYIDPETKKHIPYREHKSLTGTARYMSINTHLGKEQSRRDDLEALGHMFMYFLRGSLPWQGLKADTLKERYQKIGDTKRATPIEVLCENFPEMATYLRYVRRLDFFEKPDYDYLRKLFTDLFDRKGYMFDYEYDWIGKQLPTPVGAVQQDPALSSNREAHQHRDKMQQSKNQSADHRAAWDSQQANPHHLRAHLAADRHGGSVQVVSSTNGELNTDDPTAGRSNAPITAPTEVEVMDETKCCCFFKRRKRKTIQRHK

[10] = kinase MAP4K2, compound at 1 μM

For `CNC(=O)c1cc(Oc2ccc(NC(=O)Nc3ccc(Cl)c(C(F)(F)F)c3)c(F)c2)ccn1` [regorafenib], the “%-inhibition of SGK” value ([1]; kinase SGK, 1 μM) was -5.37%, the “%-inhibition of MSK2” value ([2]; kinase MSK2, 1 μM) was 2.43% and the “%-inhibition of TRKA” value ([3]; kinase TRKA, 1 μM) was 90%. For the same compound, the “%-inhibition of RET(S891A)” value ([4]; 1 µM) was 102%, the “%-inhibition of FER” value ([5]; kinase FER, compound at 1 μM) was -2% and the “%-inhibition of MAP4K2” value [6, 10] was 46%. The “%-inhibition of LKB1” value ([7]; kinase LKB1, compound at 1 μM) was -5%, the “%-inhibition of PBK” value ([8]; kinase PBK, 1 μM) was -29% and the “%-inhibition, CK1γ3” value ([9]; kinase CK1γ3, 1 μM compound) was -2.14%.

`CO[C@H]1C[C@@H]2CC[C@@H](C)[C@@](O)(O2)C(=O)C(=O)N2CCCC[C@H]2C(=O)O[C@H]([C@H](C)C[C@@H]2CC[C@@H](OC(=O)C(C)(CO)CO)[C@H](OC)C2)CC(=O)[C@H](C)/C=C(\C)[C@@H](O)[C@@H](OC)C(=O)[C@H](C)C[C@H](C)/C=C/C=C/C=C/1C` [temsirolimus] was tested, and the “%-inhibition of SGK” value ([1]; kinase SGK, 1 μM) was -3.17%, the “%-inhibition of MSK2” value ([2]; kinase MSK2, 1 μM) was -5% and the “%-inhibition of TRKA” value ([3]; kinase TRKA, 1 μM) was -3.53%. The “%-inhibition of RET(S891A)” value ([4]; kinase RET(S891A), 1 μM) was -2.19%, the “%-inhibition of FER” value ([5]; kinase FER, compound at 1 μM) was -4% and the “%-inhibition of MAP4K2” value [6, 10] was -3%. The “%-inhibition of LKB1” value ([7]; kinase LKB1, compound at 1 μM) was -6.57%, the “%-inhibition of PBK” value ([8]; kinase PBK, 1 μM) was -9% and the “%-inhibition, CK1γ3” value ([9]; kinase CK1γ3, 1 μM compound) was -1%.

For `CS(=O)(=O)CCNCc1ccc(-c2ccc3ncnc(Nc4ccc(OCc5cccc(F)c5)c(Cl)c4)c3c2)o1` [lapatinib], the “%-inhibition of SGK” value ([1]; kinase SGK, 1 μM) was 2.49%, the “%-inhibition of MSK2” value ([2]; kinase MSK2, 1 μM) was 2% and the “%-inhibition of TRKA” value ([3]; kinase TRKA, 1 μM) was 5.64%. The “%-inhibition of RET(S891A)” value ([4]; 1 µM) was 0.932%, the “%-inhibition of FER” value ([5]; kinase FER, compound at 1 μM) was 3% and the “%-inhibition of MAP4K2” value [6, 10] was 11%. The “%-inhibition of LKB1” value ([7]; kinase LKB1, compound at 1 μM) was 4%, the “%-inhibition of PBK” value ([8]; kinase PBK, 1 μM) was 6% and the “%-inhibition, CK1γ3” value ([9]; 1 µM) was -0.863%.

For `Cc1cn(-c2cc(NC(=O)c3ccc(C)c(Nc4nccc(-c5cccnc5)n4)c3)cc(C(F)(F)F)c2)cn1` [nilotinib], the “%-inhibition of SGK” value ([1]; kinase SGK, 1 μM) was 9%, the “%-inhibition of MSK2” value ([2]; kinase MSK2, 1 μM) was 2.55% and the “%-inhibition of TRKA” value ([3]; 1 µM) was 41%. For the same compound, the “%-inhibition of RET(S891A)” value ([4]; 1 µM) was 81%, the “%-inhibition of FER” value ([5]; kinase FER, compound at 1 μM) was -19% and the “%-inhibition of MAP4K2” value [6, 10] was 3.24%. The “%-inhibition of LKB1” value ([7]; 1 µM) was -6%, the “%-inhibition of PBK” value ([8]; kinase PBK, 1 μM) was -8% and the “%-inhibition, CK1γ3” value ([9]; 1 µM) was -10%.

For `C#Cc1cccc(Nc2ncnc3cc(OCCOC)c(OCCOC)cc23)c1` [erlotinib], the “%-inhibition of SGK” value ([1]; 1 µM) was 6%, the “%-inhibition of MSK2” value ([2]; 1 µM) was 5% and the “%-inhibition of TRKA” value ([3]; 1 µM) was 14%. The “%-inhibition of RET(S891A)” value ([4]; 1 µM) was 93%, the “%-inhibition of FER” value ([5]; 1 µM) was 4.42% and the “%-inhibition of MAP4K2” value ([6]; 1 µM) was 9%. For the same compound, the “%-inhibition of LKB1” value ([7]; 1 µM) was 2%, the “%-inhibition of PBK” value ([8]; 1 µM) was 4.3% and the “%-inhibition, CK1γ3” value ([9]; 1 µM) was -0.719%.
